Literature values as cited in article PMC10851415 (Biochemistry, 2024).

Tested on: influenza
Conditions: in vivo, po; cited from earlier work

COC(=O)OCOc1c2n(ccc1=O)N([C@@H]1c3ccccc3SCc3c1ccc(F)c3F)[C@@H]1COCCN1C2=O [BXM, Baloxavir marboxil]
reduce fever in an average of: 24 h
